According to patent publication US7186831B2, “5-halo-2-alkyl[1,2,4]triazolo[1,5-a]pyrimidin-7-amines” (priority 2001, dated 2007):

Experiment: log P by HPLC
Format: physicochemical
Details: EEC directive 79/831 Annex V. A8 by HPLC (gradient method, acetonitrile/0.1% aqueous phosphoric acid)

logP | SMILES
3.02 | Cc1nc2nc(Cl)c(-c3c(F)cccc3F)c(N3CCCC3C)n2n1 (centres unmarked) [compound 304]
3.04 | CCOC(=O)CN(CC)c1c(-c2ccc(F)cc2F)c(Cl)nc2nc(C)nn12 [compound 355]
1.26 | Cc1nc2nc(Cl)c(-c3ccccc3F)c(N3CCC(N4CCOCC4)CC3)n2n1 [compound 322]
3.39 | CCN(Cc1ccco1)c1c(-c2ccc(F)cc2F)c(Cl)nc2nc(C)nn12 [compound 354]
2.3 | CCNc1c(-c2ccccc2F)c(Cl)nc2nc(C)nn12 [compound 383]
4.37 | C=C(C)CN(CC)c1c(-c2ccc(F)cc2F)c(Cl)nc2nc(C3CC3)nn12 [compound 491]
3 | CCN(CC1CCCO1)c1c(-c2c(F)cccc2F)c(Cl)nc2nc(C)nn12 (centres unmarked) [compound 341]
2.67 | C#CCN(C)c1c(-c2ccc(F)cc2F)c(Cl)nc2nc(C)nn12 [compound 351]
3.99 | Cc1nc2nc(Cl)c(-c3c(F)cccc3Cl)c(N3CCCC(C)C3)n2n1 (centres unmarked) [compound 302]
1.85 | CC(=O)NC1CCN(c2c(-c3ccc(F)cc3F)c(Cl)nc3nc(C)nn23)CC1 [compound 294]
2.69 | COC(=O)C1CCN(c2c(-c3c(F)cccc3F)c(Cl)nc3nc(C)nn23)CC1 [compound 318]
3.73 | Cc1nc2nc(Cl)c(-c3ccccc3F)c(NC3CC(C(F)(F)F)CC(C(F)(F)F)C3)n2n1 (centres unmarked) [compound 399]
1.78 | CC(=O)NC1CCN(c2c(-c3c(F)cccc3F)c(Cl)nc3nc(C)nn23)CC1 [compound 323]
3.09 | Cc1nc2nc(Cl)c(-c3c(F)cc(F)cc3F)c(NC(C)C3CC3)n2n1 (centres unmarked) [compound 379]
2.28 | CCONc1c(-c2ccccc2F)c(Cl)nc2nc(C)nn12 [compound 362]
3.42 | Fc1cc(F)c(-c2c(Cl)nc3nc(C4CC4)nn3c2N2CCCCN2)c(F)c1 [compound 487]
3.69 | CCC(C)Nc1c(-c2c(F)cc(F)cc2F)c(Cl)nc2nc(C3CC3)nn12 (centres unmarked) [compound 462]
3.89 | CC(Nc1c(-c2ccc(F)cc2F)c(Cl)nc2nc(C(F)(F)F)nn12)C(F)(F)F (centres unmarked) [compound 358]
3.29 | COCCN(C)c1c(-c2c(F)cc(F)cc2F)c(Cl)nc2nc(C3CC3)nn12 [compound 468]
1.73 | Cc1nc2nc(Cl)c(-c3c(F)cccc3F)c(N3CCC(O)C3)n2n1 (centres unmarked) [compound 303]
3.46 | CCCCN(C)c1c(-c2c(F)cccc2F)c(Cl)nc2nc(C)nn12 [compound 338]
3.03 | CCN(CCOC)c1c(-c2c(F)cccc2Cl)c(Cl)nc2nc(C)nn12 [compound 269]
3.43 | Cc1nc2nc(Cl)c(-c3ccccc3F)c(NC3CCCCC3)n2n1 [compound 397]
3.39 | CCCN(CC1CCCO1)c1c(-c2c(F)cccc2F)c(Cl)nc2nc(C)nn12 (centres unmarked) [compound 347]
3.49 | Cc1nc2nc(Cl)c(-c3ccccc3F)c(NC3CCCCC3C(F)(F)F)n2n1 (centres unmarked) [compound 398]
2.95 | C=CCN(C)c1c(-c2c(F)cccc2F)c(Cl)nc2nc(C)nn12 [compound 333]
3.35 | CC(C)Nc1c(-c2c(F)cc(F)cc2F)c(Cl)nc2nc(C3CC3)nn12 [compound 464]
2.58 | COCCN(C)c1c(-c2ccc(F)cc2F)c(Cl)nc2nc(C)nn12 [compound 352]
2.95 | CCN(CC)c1c(-c2ccccc2F)c(Cl)nc2nc(C)nn12 [compound 387]

Same assay, conditions: HPLC, gradient method, acetonitrile/0.1% aqueous phosphoric acid; EEC directive 79/831 Annex V. A8

logP | SMILES
2.41 | CCN(CCC#N)c1c(-c2c(F)cccc2F)c(Cl)nc2nc(C)nn12 [compound 569]
3.03 | Cc1nc2nc(Cl)c(-c3c(F)cc(F)cc3F)c(NC(C)C(F)(F)F)n2n1 (centres unmarked) [compound 113]
3.23 | Cc1nc2nc(Cl)c(-c3c(F)cccc3F)c(NOCc3ccc(Cl)cc3)n2n1 [compound 138]
2.54 | Cc1nc2nc(Cl)c(-c3ccccc3Cl)c(NC3CC3)n2n1 [compound 215]
3.13 | CN(C)c1c(-c2ccccc2Cl)c(Cl)nc2nc(C3CC3)nn12 [compound 36]
4.32 | CC(C)CN(C)c1c(-c2c(F)cccc2Cl)c(Cl)nc2nc(C3CC3)nn12 [compound 698]
2.11 | Cc1nc2nc(Cl)c(-c3c(F)cccc3Cl)c(NCC#N)n2n1 [compound 253]
4.07 | CCCCNc1c(-c2ccc(F)cc2F)c(Cl)nc2nc(C(F)(F)F)nn12 [compound 526]
3.43 | Cc1nc2nc(Cl)c(-c3c(F)cc(F)cc3F)c(N3CCCCC3)n2n1 [compound 60]
4.8 | CC1CCN(c2c(-c3ccc(F)cc3F)c(Cl)nc3nc(C(F)(F)F)nn23)CC1 [compound 798]
4.82 | CC1CCN(c2c(-c3ccc(F)cc3Cl)c(Cl)nc3nc(C4CC4)nn23)CC1 [compound 618]
1.46 | CN(C)C1CCN(c2c(-c3ccc(F)cc3F)c(Cl)nc3nc(C4CC4)nn23)C1 (centres unmarked) [compound 605]
4.03 | CC(C)C(C)Nc1c(-c2c(F)cc(F)cc2F)c(Cl)nc2nc(C3CC3)nn12 (centres unmarked) [compound 581]
2.38 | Cc1nc2nc(Cl)c(-c3ccccc3Cl)c(N3CCOCC3)n2n1 [compound 234]
3.46 | Cc1nc2nc(Cl)c(-c3ccc(F)cc3F)c(NC3CCCCC3)n2n1 [compound 197]
2.64 | COCCN(C)c1c(-c2ccccc2Cl)c(Cl)nc2nc(C)nn12 [compound 222]
4.19 | CC1C=CC(C)N1c1c(-c2ccccc2Cl)c(Cl)nc2nc(C3CC3)nn12 (centres unmarked) [compound 580]
1.46 | CCN(CCN(C)C)c1c(-c2c(F)cccc2F)c(Cl)nc2nc(C)nn12 [compound 567]
2.95 | Cc1nc2nc(Cl)c(-c3ccc(F)cc3F)c(N3CCCCO3)n2n1 [compound 576]
3.01 | Cc1nc2nc(Cl)c(-c3ccc(F)c(Cl)c3)c(NC(C)C)n2n1 [compound 82]
3.7 | CCCN(CC1CCCO1)c1c(-c2ccccc2Cl)c(Cl)nc2nc(C)nn12 (centres unmarked) [compound 244]
3.9 | CC(C)(C)CNc1c(-c2c(F)cccc2F)c(Cl)nc2nc(C3CC3)nn12 [compound 762]
3.3 | COCCN(C)c1c(-c2c(F)cccc2Cl)c(Cl)nc2nc(C3CC3)nn12 [compound 699]
1.28 | Cc1nc2nc(Cl)c(-c3c(F)cccc3F)c(N(CCN)C(C)C)n2n1 [compound 571]
4.18 | CC1CN(c2c(-c3c(F)cc(F)cc3F)c(Cl)nc3nc(C(F)(F)F)nn23)CC(C)O1 (centres unmarked) [compound 101]
3.21 | C#CCN(C)c1c(-c2ccc(F)cc2F)c(Cl)nc2nc(C3CC3)nn12 [compound 662]
2.78 | Cc1nc2nc(Cl)c(-c3c(F)cccc3F)c(NC(C)C(F)(F)F)n2n1 (centres unmarked) [compound 182]

logP | SMILES
4.07 | CCCN(CC1CC1)c1c(-c2ccccc2Cl)c(Cl)nc2nc(C)nn12 [compound 243]
3.25 | Fc1cc(F)c(-c2c(Cl)nc3nc(C4CC4)nn3c2NCC(F)(F)F)c(F)c1 [compound 672]
1.55 | Fc1ccc(-c2c(Cl)nc3nc(C4CC4)nn3c2N2CCC(N3CCOCC3)CC2)c(F)c1 [compound 734]
2.62 | Cc1nc2nc(Cl)c(-c3c(F)cccc3F)c(NCC3CC3)n2n1 [compound 181]
3.14 | Cc1nc2nc(Cl)c(-c3c(F)cccc3Cl)c(NCC(C)C)n2n1 [compound 248]
4.25 | CC(C)C(C)Nc1c(-c2ccc(F)cc2Cl)c(Cl)nc2nc(C3CC3)nn12 (racemic) [compound 586]
3.9 | CC(C)CNc1c(-c2ccc(F)cc2Cl)c(Cl)nc2nc(C3CC3)nn12 [compound 621]
4.25 | CCN(CC)c1c(-c2c(F)cc(F)cc2F)c(Cl)nc2nc(C(F)(F)F)nn12 [compound 33]
4.08 | Cc1ccc(Nc2c(-c3ccc(F)cc3F)c(Cl)nc3nc(C(F)(F)F)nn23)cc1 [compound 813]
3.84 | Cc1nc2nc(Cl)c(-c3ccccc3Cl)c(NC(C)CC(C)C)n2n1 (centres unmarked) [compound 218]
2.82 | CCC(C)Nc1c(-c2c(F)cccc2F)c(Cl)nc2nc(C)nn12 (centres unmarked) [compound 187]
3.73 | CCN(CC)c1c(-c2ccc(F)cc2F)c(Cl)nc2nc(C3CC3)nn12 [compound 597]
3.14 | CC(C)Nc1c(-c2c(F)cccc2F)c(Cl)nc2nc(C3CC3)nn12 [compound 739]
2.94 | Cc1nc2nc(Cl)c(-c3ccc(F)cc3Cl)c(N3CCCCN3)n2n1 [compound 691]
4.43 | Fc1ccc(-c2c(Cl)nc3nc(C(F)(F)F)nn3c2NC2CCC(C(F)(F)F)CC2)c(F)c1 (centres unmarked) [compound 537]
3.27 | Cc1nc2nc(Cl)c(-c3ccccc3Cl)c(N3CCCC3C)n2n1 (centres unmarked) [compound 226]
3.5 | C=CCN(CC)c1c(-c2c(F)cc(F)cc2F)c(Cl)nc2nc(C)nn12 [compound 157]
3.46 | CCN(CCOC)c1c(-c2ccc(F)cc2F)c(Cl)nc2nc(C3CC3)nn12 [compound 594]
3.19 | Cc1nc2nc(Cl)c(-c3ccc(F)cc3Cl)c(NC(C)C(F)(F)F)n2n1 (racemic) [compound 640]
3.19 | CN(CCC#N)c1c(-c2ccc(F)cc2F)c(Cl)nc2nc(C(F)(F)F)nn12 [compound 542]
3.92 | Cc1nc2nc(Cl)c(-c3ccccc3Cl)c(N3CCCC(C)C3)n2n1 (centres unmarked) [compound 229]
3.81 | COC(=O)C1CCN(c2c(-c3ccc(F)cc3F)c(Cl)nc3nc(C(F)(F)F)nn23)CC1 [compound 803]
3.37 | Cc1nc2nc(Cl)c(-c3c(F)cccc3F)c(NC3CCCC(C(F)(F)F)C3)n2n1 (centres unmarked) [compound 188]
3.87 | Fc1ccc(-c2c(Cl)nc3nc(C4CC4)nn3c2N2CCCCO2)c(Cl)c1 [compound 785]
2.17 | Cc1nc2nc(Cl)c(-c3c(F)cccc3F)c(N(C)CCC#N)n2n1 [compound 563]
3.2 | Cc1nc2nc(Cl)c(-c3c(F)cc(F)cc3F)c(N3CC=CCC3)n2n1 [compound 83]
3.19 | C=CCN(C)c1c(-c2ccccc2Cl)c(Cl)nc2nc(C)nn12 [compound 220]
